From patent publication US20150118222A1, “TREATMENT USING BRUTON'S TYROSINE KINASE INHIBITORS AND IMMUNOTHERAPY” (Pharmacyclics, Inc., priority 2013, published 2015)
Like-named read-outs stand apart in the source and are kept apart here.

Columns and labels:
CT26 cells [1] = tested on: CT26 cells
CT26 cells [2] = test: CT26 colon cancer mouse model (Example 8); type: in vivo, BALB/c mice; conditions: CT26 colon carcinoma line
A20 = test: IC50 of ibrutinib in A20 mouse lymphoma cells (FIG. 19B); type: cell-based; conditions: read-out: IC50 of ibrutinib, FIG. 19 Panel B
4T1-Luc cells = conditions: 4T1, model of triple negative breast cancer

- IC50 (A20): > 10 µM
Structure (SMILES): C=CC(=O)N1CCC[C@@H](n2nc(-c3ccc(Oc4ccccc4)cc3)c3c(N)ncnc32)C1 [ibrutinib, 1-((R)-3-(4-amino-3-(4-phenoxyphenyl)-1H-pyrazolo[3,4-d]pyrimidin-1-yl)piperidin-1-yl)prop-2-en-1-one]
- sensitivity of the CT26 cell line to ibrutinib (CT26 cells [1]): not sensitive
- sensitivity of the CT26 cell line to ibrutinib (CT26 cells [2]): not sensitive
- sensitivity of the 4T1 cell line to ibrutinib (4T1-Luc cells): not sensitive
